These results are taken from US11180494B2, “Substituted amino acids as integrin inhibitors” (Pliant Therapeutics, Inc., priority 2018, dated 2021).

A word on the pIC50: it is the negative decadic logarithm of the IC50, by convention in mol/L.

SMILES strings stand for the structures. pIC50: −log10 of the molar value.

The target of this assay is human integrin αvβ6 (Homo sapiens (Human), UniProt P06756+P18564). Description: Proximity-based integrin receptor binding assay (ALPHASCREEN) for inhibitor potency. Particulars: inhibition of binding of TGF-b1 LAP to human integrin αvβ6; values given in ranges. A digest of the protocol: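 AlphaScreen: integrin, compound, TGF-b1 LAP, biotinylated anti-LAP antibody and acceptor beads incubated 2 hours, then streptavidin donor beads 30 minutes, at room temperature in 50 mM Tris-HCl pH 7.5, 0.1% BSA, 1 mM CaCl2 and MgCl2. Excitation 680 nm, emission 520-620 nm; IC50 by four-parameter logistic fit.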
Chain of human integrin αvβ6 (P06756 31-992): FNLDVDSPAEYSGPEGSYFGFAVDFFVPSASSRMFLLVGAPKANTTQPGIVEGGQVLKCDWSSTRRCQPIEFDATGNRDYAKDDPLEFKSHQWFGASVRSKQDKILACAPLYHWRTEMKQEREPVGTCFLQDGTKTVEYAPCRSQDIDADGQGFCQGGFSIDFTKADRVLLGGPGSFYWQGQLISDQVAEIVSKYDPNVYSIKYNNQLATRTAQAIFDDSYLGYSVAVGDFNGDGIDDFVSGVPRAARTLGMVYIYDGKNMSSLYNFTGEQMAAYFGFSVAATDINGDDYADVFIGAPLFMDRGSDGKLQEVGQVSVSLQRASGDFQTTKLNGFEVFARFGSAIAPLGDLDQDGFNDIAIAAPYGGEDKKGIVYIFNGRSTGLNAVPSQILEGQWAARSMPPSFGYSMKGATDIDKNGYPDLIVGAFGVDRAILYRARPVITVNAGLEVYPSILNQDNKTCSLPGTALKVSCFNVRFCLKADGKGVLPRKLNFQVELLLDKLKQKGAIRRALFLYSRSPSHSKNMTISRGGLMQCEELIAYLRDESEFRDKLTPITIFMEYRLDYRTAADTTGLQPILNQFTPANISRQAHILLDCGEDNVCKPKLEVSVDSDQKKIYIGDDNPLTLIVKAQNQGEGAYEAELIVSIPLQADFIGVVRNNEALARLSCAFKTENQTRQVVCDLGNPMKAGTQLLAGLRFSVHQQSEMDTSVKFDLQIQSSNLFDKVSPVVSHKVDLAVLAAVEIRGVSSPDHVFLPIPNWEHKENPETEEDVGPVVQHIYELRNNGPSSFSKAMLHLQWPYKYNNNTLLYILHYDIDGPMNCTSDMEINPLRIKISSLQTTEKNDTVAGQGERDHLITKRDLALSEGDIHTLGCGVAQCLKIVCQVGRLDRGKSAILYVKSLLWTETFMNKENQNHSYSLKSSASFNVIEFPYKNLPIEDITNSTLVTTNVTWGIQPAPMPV
Chain of human integrin αvβ6 (P18564 22-707): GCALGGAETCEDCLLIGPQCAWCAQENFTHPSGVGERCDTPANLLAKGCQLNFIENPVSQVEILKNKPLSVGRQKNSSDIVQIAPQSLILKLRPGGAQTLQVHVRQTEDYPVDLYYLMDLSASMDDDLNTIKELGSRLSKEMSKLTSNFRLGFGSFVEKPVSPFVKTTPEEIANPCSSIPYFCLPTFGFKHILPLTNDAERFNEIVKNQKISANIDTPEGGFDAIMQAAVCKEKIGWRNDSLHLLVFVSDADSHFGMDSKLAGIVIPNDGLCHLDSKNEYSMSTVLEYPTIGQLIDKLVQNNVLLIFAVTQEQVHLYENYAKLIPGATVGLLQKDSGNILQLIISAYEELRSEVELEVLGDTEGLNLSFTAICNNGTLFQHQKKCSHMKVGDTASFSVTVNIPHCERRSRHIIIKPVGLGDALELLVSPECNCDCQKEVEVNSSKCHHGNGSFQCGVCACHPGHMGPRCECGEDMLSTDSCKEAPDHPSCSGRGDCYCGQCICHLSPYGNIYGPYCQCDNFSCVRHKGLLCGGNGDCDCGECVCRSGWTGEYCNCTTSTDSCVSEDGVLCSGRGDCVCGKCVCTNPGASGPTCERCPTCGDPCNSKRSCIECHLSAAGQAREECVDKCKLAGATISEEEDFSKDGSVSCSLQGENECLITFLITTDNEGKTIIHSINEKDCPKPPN
On the technique in general: Alpha assays give light when donor and acceptor beads are brought close together.
For the compound `CC(C)N(C)C(=O)N[C@@H](CCO[C@H]1C[C@H](CCc2ccc3c(n2)NCCC3)C1)C(=O)O` [Compound 120, N-(isopropyl(methyl)carbamoyl)-O-(trans-3-(2-(5,6,7,8-tetrahydro-1,8-naphthyridin-2-yl)ethyl)cyclobutyl)homoserine], the pIC50 was over 7.30.
With `CC(C)N(C(=O)N[C@@H](CCO[C@H]1C[C@H](CCc2ccc3c(n2)NCCC3)C1)C(=O)O)C(C)C` [Compound 121, N-(diisopropylcarbamoyl)-O-(trans-3-(2-(5,6,7,8-tetrahydro-1,8-naphthyridin-2-yl)ethyl)cyclobutyl)homoserine] the figure was over 7.30.
For `CC(C)(C)CC(=O)N[C@@H](CCO[C@H]1C[C@H](CCc2ccc3c(n2)NCCC3)C1)C(=O)O` [Compound 122, N-(3,3-dimethylbutanoyl)-O-(trans-3-(2-(5,6,7,8-tetrahydro-1,8-naphthyridin-2-yl)ethyl)cyclobutyl)homoserine], the pIC50 is 6.60 to 7.30.
With `CC(C)CC(=O)N[C@@H](CCO[C@H]1C[C@H](CCc2ccc3c(n2)NCCC3)C1)C(=O)O` [Compound 123, N-(3-methylbutanoyl)-O-(trans-3-(2-(5,6,7,8-tetrahydro-1,8-naphthyridin-2-yl)ethyl)cyclobutyl)homoserine] the figure was over 7.30; with `O=C(CC1CCC1)N[C@@H](CCO[C@H]1C[C@H](CCc2ccc3c(n2)NCCC3)C1)C(=O)O` [Compound 124, N-(2-cyclobutylacetyl)-O-(trans-3-(2-(5,6,7,8-tetrahydro-1,8-naphthyridin-2-yl)ethyl)cyclobutyl)homoserine], over 7.30.
With `CC1(CC(=O)N[C@@H](CCO[C@H]2C[C@H](CCc3ccc4c(n3)NCCC4)C2)C(=O)O)CC1` [Compound 125, N-(2-(1-methylcyclopropyl)acetyl)-O-(trans-3-(2-(5,6,7,8-tetrahydro-1,8-naphthyridin-2-yl)ethyl)cyclobutyl)homoserine] the figure was 6.60 to 7.30; with `O=C(CC1CC1)N[C@@H](CCO[C@H]1C[C@H](CCc2ccc3c(n2)NCCC3)C1)C(=O)O` [Compound 126, N-(2-cyclopropylacetyl)-O-(trans-3-(2-(5,6,7,8-tetrahydro-1,8-naphthyridin-2-yl)ethyl)cyclobutyl)homoserine], over 7.30; with `CC(C)(C)OC(=O)N1CC(C)(OC(=O)N[C@@H](CCO[C@H]2C[C@H](CCc3ccc4c(n3)NCCC4)C2)C(=O)O)C1` [Compound 127, N-(((1-(tert-butoxycarbonyl)-3-methylazetidin-3-yl)oxy)carbonyl)-O-(trans-3-(2-(5,6,7,8-tetrahydro-1,8-naphthyridin-2-yl)ethyl)cyclobutyl)homoserine], over 7.30.
For the compound `CC1(OC(=O)N[C@@H](CCO[C@H]2C[C@H](CCc3ccc4c(n3)NCCC4)C2)C(=O)O)CN(S(C)(=O)=O)C1` [Compound 128, N-(((3-methyl-1-(methylsulfonyl)azetidin-3-yl)oxy)carbonyl)-O-(trans-3-(2-(5,6,7,8-tetrahydro-1,8-naphthyridin-2-yl)ethyl)cyclobutyl)homoserine], the negative logarithm of the IC50 (pIC50) was 6.60 to 7.30.
For `CC(=O)N1CC(C)(OC(=O)N[C@@H](CCO[C@H]2C[C@H](CCc3ccc4c(n3)NCCC4)C2)C(=O)O)C1` [Compound 129, N-(((1-acetyl-3-methylazetidin-3-yl)oxy)carbonyl)-O-(trans-3-(2-(5,6,7,8-tetrahydro-1,8-naphthyridin-2-yl)ethyl)cyclobutyl)homoserine] the value was 6.60 to 7.30.
For `CC1(OC(=O)N[C@@H](CCO[C@H]2C[C@H](CCc3ccc4c(n3)NCCC4)C2)C(=O)O)CNC1` [Compound 130, N-(((3-methylazetidin-3-yl)oxy)carbonyl)-O-(trans-3-(2-(5,6,7,8-tetrahydro-1,8-naphthyridin-2-yl)ethyl)cyclobutyl)homoserine] the value was 6.60 to 7.30; for `O=C(N[C@@H](CCO[C@H]1C[C@H](CCc2ccc3c(n2)NCCC3)C1)C(=O)O)OC1CCCCC1` [Compound 131, N-((cyclohexyloxy)carbonyl)-O-(trans-3-(2-(5,6,7,8-tetrahydro-1,8-naphthyridin-2-yl)ethyl)cyclobutyl)homoserine], over 7.30.
For `CC(C)COC(=O)N[C@@H](CCO[C@H]1C[C@H](CCc2ccc3c(n2)NCCC3)C1)C(=O)O` [Compound 132, N-(isobutoxycarbonyl)-O-(trans-3-(2-(5,6,7,8-tetrahydro-1,8-naphthyridin-2-yl)ethyl)cyclobutyl)homoserine] the value was 6.60 to 7.30; for `CC(C)(C)OC(=O)N1CC[C@H](OC(=O)N[C@@H](CCO[C@H]2C[C@H](CCc3ccc4c(n3)NCCC4)C2)C(=O)O)C1` [Compound 133, N—((((S)-1-(tert-butoxycarbonyl)pyrrolidin-3-yl)oxy)carbonyl)-O-(trans-3-(2-(5,6,7,8-tetrahydro-1,8-naphthyridin-2-yl)ethyl)cyclobutyl)homoserine], over 7.30.
As to `O=C(N[C@@H](CCO[C@H]1C[C@H](CCc2ccc3c(n2)NCCC3)C1)C(=O)O)O[C@H]1CCNC1` [Compound 134, N—((((S)-pyrrolidin-3-yl)oxy)carbonyl)-O-(trans-3-(2-(5,6,7,8-tetrahydro-1,8-naphthyridin-2-yl)ethyl)cyclobutyl)homoserine], the pIC50 was 6.60 to 7.30.
In the case of `CS(=O)(=O)CCCC(=O)N[C@@H](CCO[C@H]1C[C@H](CCc2ccc3c(n2)NCCC3)C1)C(=O)O` [Compound 135, N-(4-(methylsulfonyl)butanoyl)-O-(trans-3-(2-(5,6,7,8-tetrahydro-1,8-naphthyridin-2-yl)ethyl)cyclobutyl)homoserine], the pIC50 was 6.60 to 7.30.
For `CS(=O)(=O)N1CC[C@H](OC(=O)N[C@@H](CCO[C@H]2C[C@H](CCc3ccc4c(n3)NCCC4)C2)C(=O)O)C1` [Compound 136, N—((((S)-1-(methylsulfonyl)pyrrolidin-3-yl)oxy)carbonyl)-O-(trans-3-(2-(5,6,7,8-tetrahydro-1,8-naphthyridin-2-yl)ethyl)cyclobutyl)homoserine] the value was over 7.30; for `CC(=O)N1CC[C@H](OC(=O)N[C@@H](CCO[C@H]2C[C@H](CCc3ccc4c(n3)NCCC4)C2)C(=O)O)C1` [Compound 137, N—((((S)-1-acetylpyrrolidin-3-yl)oxy)carbonyl)-O-(trans-3-(2-(5,6,7,8-tetrahydro-1,8-naphthyridin-2-yl)ethyl)cyclobutyl)homoserine], 6.00 to 6.60; for `CC(C)(C)OC(=O)N1CC[C@@H](OC(=O)N[C@@H](CCO[C@H]2C[C@H](CCc3ccc4c(n3)NCCC4)C2)C(=O)O)C1` [Compound 138, N—((((R)-1-(tert-butoxycarbonyl)pyrrolidin-3-yl)oxy)carbonyl)-O-(trans-3-(2-(5,6,7,8-tetrahydro-1,8-naphthyridin-2-yl)ethyl)cyclobutyl)homoserine], 6.60 to 7.30.
With `CC(=O)N1CC[C@@H](OC(=O)N[C@@H](CCO[C@H]2C[C@H](CCc3ccc4c(n3)NCCC4)C2)C(=O)O)C1` [Compound 139, N—((((R)-1-acetylpyrrolidin-3-yl)oxy)carbonyl)-O-(trans-3-(2-(5,6,7,8-tetrahydro-1,8-naphthyridin-2-yl)ethyl)cyclobutyl)homoserine] the figure was under 6.00.
